Assay results as given in US10913738B2 (BRISTOL-MYERS SQUIBB COMPANY, priority 2017, dated 2021).
Like-named read-outs stand apart in the source and are kept apart here.

How the values were obtained:
[1] = target: T1, His-GST-TVMV-hRIPK1(1-324) (Homo sapiens, UniProt Q13546); assay: RIPK1 HTRF Binding Assay
T1 construct: The coding region of human RIPK1(1-324) flanked by NdeI site at 5′ end; made in house; host or cells: Spodoptera frugiperda (Sf9) insect cells, baculovirus
T1 sequence (Q13546 1-324): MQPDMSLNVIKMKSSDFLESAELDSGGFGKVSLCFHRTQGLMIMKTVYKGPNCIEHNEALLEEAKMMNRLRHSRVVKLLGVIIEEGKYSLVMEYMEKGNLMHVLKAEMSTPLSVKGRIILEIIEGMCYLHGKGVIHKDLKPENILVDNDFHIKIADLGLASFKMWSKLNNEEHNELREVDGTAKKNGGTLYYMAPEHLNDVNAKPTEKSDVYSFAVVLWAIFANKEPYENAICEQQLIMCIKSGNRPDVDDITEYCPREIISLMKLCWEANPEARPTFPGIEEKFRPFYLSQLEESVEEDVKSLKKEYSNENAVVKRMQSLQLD

[2] = tested on: MLKL phosphorylation in HT29-L23 human colorectal adenocarcinoma cells; assay: MLKL Phosphorylation High-Content Assay; assay type: cell-based; conditions: Homo sapiens
Summary of the method: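 IC50 and Ymax obtained by 4-parameter logistic fitting of MLKL phosphorylation, measured as mean circ-ring average intensity ratio from high-content images. Staining used an anti-phospho-S358 MLKL antibody overnight at 4° C., following six-hour cell incubation at 37° C.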

[3] = x marks IC50 class 20-200 nM, read-out: RIPK1 HTRF binding 20-200 nM
[4] = x marks IC50 class >200 nM, read-out: pMLKL cell activity >200 nM
[5] = x marks IC50 class <20 nM, read-out: RIPK1 HTRF binding <20 nM
[6] = x marks IC50 class <20 nM, read-out: pMLKL cell activity <20 nM
[7] = x marks IC50 class 20-200 nM, read-out: pMLKL cell activity 20-200 nM

SMILES | IC50 [1, 3] [nM] | IC50 [2, 4] [nM] | IC50 [1, 5] [nM] | IC50 [2, 6] [nM] | IC50 [2, 7] [nM]
Nc1nc2cc(-c3cnc(Cl)c(C(=O)NCc4cc(OC(F)(F)F)ccc4F)c3)ccn2n1 [Example 166, 5-{2-amino-[1,2,4]triazolo[1,5-a]pyridin-7-y1}-2-chloro-N-{[2-fluoro-5-(trifluoromethoxy)phenyl]methyl}pyridine-3-carboxamide] | 20 to 200 | > 200 |  |  | 
Nc1nc2cc(-c3cnc(Cl)c(C(=O)NCc4cccc(OC(F)(F)F)c4)c3)ccn2n1 [Example 167] |  |  | < 20 | < 20 | 
Nc1nc2cc(-c3cnc(Cl)c(C(=O)NCc4ccccc4OC(F)(F)F)c3)ccn2n1 [Example 168, 5-{2-amino-[1,2,4]triazolo[1,5-a]pyridin-7-yl}-2-chloro-N-{[2-(trifluoromethoxy)phenyl]methyl}pyridine-3-carboxamide] | 20 to 200 | > 200 |  |  | 
CC(CCNC(=O)c1cc(-c2ccn3nc(N)nc3c2)cnc1Cl)c1ccccc1 (centres unmarked) [Example 169, 5-{2-amino-[1,2,4]triazolo[1,5-a]pyridin-7-yl}-2-chloro-N-(3-phenylbutyl)pyridine-3-carboxamide] | 20 to 200 | > 200 |  |  | 
[2H]C([2H])(NC(=O)c1cc(-c2ccn3nc(N)nc3c2)cnc1Cl)c1cc(OC(F)(F)F)ccc1F [Example 171, 5-{2-amino-[1,2,4]triazolo[1,5-a]pyridin-7-yl}-2-chloro-N-{[2-fluoro-5-(trifluoromethoxy)phenyl](deutero)methyl}pyridine-3-carboxamide] | 20 to 200 |  |  |  | 20 to 200
Cc1nc(C)c(-c2ccn3nc(N)nc3c2)cc1C(=O)NCC(O)COc1ccccc1 (centres unmarked) [Example 172, 5-{2-amino-[1,2,4]triazolo[1,5-a]pyridin-7-yl}-N-(2-hydroxy-3-phenoxypropyl)-2,6-dimethylpyridine-3-carboxamide] |  |  | < 20 |  | 20 to 200
Cc1nc(C)c(-c2ccn3nc(N)nc3c2)cc1C(=O)NCC(O)Cc1ccccc1 (centres unmarked) [Example 173] | 20 to 200 | > 200 |  |  | 
Cc1nc(C)c(-c2ccn3nc(N)nc3c2)cc1C(=O)NCCC(C)c1ccccc1 (centres unmarked) [Example 174, 5-{2-amino-[1,2,4]triazolo[1,5-a]pyridin-7-yl}-2,6-dimethyl-N-(3-phenylbutyl)pyridine-3-carboxamide] | 20 to 200 | > 200 |  |  | 
Cc1nc(C)c(-c2ccn3nc(N)nc3c2)cc1C(=O)NCCc1cccc(OC(F)(F)F)c1 [Example 175, 5-{2-amino-[1,2,4]triazolo[1,5-a]pyridin-7-yl}-2,6-dimethyl-N-{2-[3-(trifluoromethoxy)phenyl]ethyl}pyridine-3-carboxamide] |  |  | < 20 | < 20 | 
Cc1nc(C)c(-c2ccn3nc(N)nc3c2)cc1C(=O)NCc1cccc(OCC2CC2)c1 [Example 176, 5-{2-amino-[1,2,4]triazolo[1,5-a]pyridin-7-yl}-N-{[3-(cyclopropylmethoxy)phenyl]methyl]-2,6-dimethylpyridine-3-carboxamide] | 20 to 200 | > 200 |  |  | 
Cc1nc(C)c(-c2ccn3nc(N)nc3c2)cc1C(=O)NCc1c(F)cc(F)cc1OCC1CCCC1 [Example 177, 5-{2-amino-[1,2,4]triazolo[1,5-a]pyridin-7-yl}-N-{[2-(cyclopentylmethoxy)-4,6-difluorophenyl]methyl}-2,6-dimethylpyridine-3-carboxamide] |  |  | < 20 |  | 20 to 200
Cc1nc(C)c(-c2ccn3nc(N)nc3c2)cc1C(=O)NCc1c(F)cccc1OCC1CCCC1 [Example 180, 5-12-amino-[1,2,4]triazolo[1,5-a]pyridin-7-yl}-N-{[2-(cyclopentylmethoxy)-6-fluorophenyllmethyl}-2,6-dimethylpyridine-3-carboxamide] |  |  | < 20 |  | 20 to 200
Cc1nc(C)c(-c2ccn3nc(N)nc3c2)cc1C(=O)NCc1cc(OC(F)(F)F)ccc1F [Example 181, 5-{2-amino-[1,2,4]triazolo[1,5-a]pyridin-7-yl}-N-{[2-fluoro-5-(trifluoromethoxy)phenyl]methyl}-2,6-dimethylpyridine-3-carboxamide] |  |  | < 20 | < 20 | 
Cc1nc(C)c(-c2ccn3nc(N)nc3c2)cc1C(=O)NCc1ncccc1OCC1CCCC1 [Example 182, 5-{2-amino-[1,2,4]triazolo[1,5-a]pyridin-7-yl}-N-{[3-(cyclopentylmethoxy)pyridin-2-yl]methyl}-2,6-dimethylpyridine-3-carboxamide] |  |  | < 20 |  | 20 to 200
Cc1nc(C)c(-c2ccn3nc(N)nc3c2)cc1C(=O)NCc1cccnc1OCC1CCCC1 [Example 183] | 20 to 200 |  |  |  | 20 to 200
Cc1nc(C)c(-c2ccn3nc(N)nc3c2)cc1C(=O)NCc1cc(F)cc(F)c1OCC1CC1 [Example 184, 5-{2-amino-[1,2,4]triazolo[1,5-a]pyridin-7-yl}-N-{[2-(cyclopropylmethoxy)-3,5-difluorophenyl]methyl}-2,6-dimethylpyridine-3-carboxamide] |  |  | < 20 | < 20 | 
Cc1nc(C)c(-c2ccn3nc(N)nc3c2)cc1C(=O)NCc1ccccc1OCC1CC1 [Example 185, 5-{2-amino-[1,2,4]triazolo[1,5-a]pyridin-7-yl}-N-{[2-(cyclopropylmethoxy)phenyl]methyl}-2,6-dimethylpyridine-3-carboxamide] |  |  | < 20 | < 20 | 
Cc1nc(C)c(-c2ccn3nc(N)nc3c2)cc1C(=O)NCc1ccccc1OCC1CCCC1 [Example 186, 5-{2-amino-[1,2,4]triazolo[1,5-a]pyridin-7-yl}-N-{[2-(cyclopentylmethoxy)phenyl]methyl}-2,6-dimethylpyridine-3-carboxamide] |  |  | < 20 |  | 20 to 200
Cc1nc(C)c(-c2ccn3nc(N)nc3c2)cc1C(=O)NCc1cccnc1OCC1CCC1 [Example 187, 5-{2-amino-[1,2,4]triazolo[1,5-a]pyridin-7-yl}-N-{[2-(cyclobutylmethoxy)pyridin-3-yl]methyl}-2,6-dimethylpyridine-3-carboxamide] | 20 to 200 |  |  |  | 20 to 200
Cc1nc(C)c(-c2ccn3nc(N)nc3c2)cc1C(=O)NCc1cc(F)cc(F)c1OCC1CCCC1 [Example 188, 5-{2-amino-[1,2,4]triazolo[1,5-a]pyridin-7-yl}-N-{[2-(cyclopentylmethoxy)-3,5-difluorophenyl]methyl}-2,6-dimethylpyridine-3-carboxamide] |  |  | < 20 | < 20 | 
Cc1nc(C)c(-c2ccn3nc(N)nc3c2)cc1C(=O)NCc1cccc(OC(F)(F)F)c1 [Example 189, 5-{2-amino-[1,2,4]triazolo[1,5-a]pyridin-7-yl}-2,6-dimethyl-N-{[3-(trifluoromethoxy)phenyl]methyl}pyridine-3-carboxamide] | 20 to 200 |  |  |  | 20 to 200
Cc1nc(C)c(-c2ccn3nc(N)nc3c2)cc1C(=O)NCc1cc(F)ccc1OCC1CCCC1 [Example 190, 5-{2-amino-[1,2,4]triazolo[1,5-a]pyridin-7-yl}-N-{[2-(cyclopentylmethoxy)-5-fluorophenyl]methyl}-2,6-dimethylpyridine-3-carboxamide] |  |  | < 20 | < 20 | 
[2H]C([2H])(NC(=O)c1cc(-c2ccn3nc(N)nc3c2)c(C)nc1C)c1cc(OC(F)(F)F)ccc1F [Example 191] |  |  | < 20 | < 20 | 
Cc1nc(C)c(-c2ccn3nc(N)nc3c2)cc1C(=O)NCc1cc(C(F)(F)F)ccc1F [Example 192, 5-{2-amino-[1,2,4]triazolo[1,5-a]pyridin-7-yl}-N-{[2-fluoro-5-(trifluoromethyl)phenyl]methyl}-2,6-dimethylpyridine-3-carboxamide] |  |  | < 20 | < 20 | 
COc1nc(C)c(-c2ccn3nc(N)nc3c2)cc1C(=O)NCCc1ccccc1OC(F)(F)F [Example 194, 5-{2-amino-[1,2,4]triazolo[1,5-a]pyridin-7-yl}-2-methoxy-6-methyl-N-{2-[2-(trifluoromethoxy)phenyl]ethyl}pyridine-3-carboxamide] | 20 to 200 | > 200 |  |  | 
COc1nc(C)c(-c2ccn3nc(N)nc3c2)cc1C(=O)NCc1ccccc1OC1CCOCC1 [Example 195, 5-{2-amino-[1,2,4]triazolo[1,5-a]pyridin-7-yl}-2-methoxy-6-methyl-N-{[2-(oxan-4-yloxy)phenyl]methyl}pyridine-3-carboxamide] |  |  | < 20 | < 20 | 
COc1nc(C)c(-c2ccn3nc(N)nc3c2)cc1C(=O)NCc1cc(F)cc(C(F)(F)F)c1 [Example 196, 5-{2-amino-[1,2,4]triazolo[1,5-a]pyridin-7-yl}-N-{[3-fluoro-5-(trifluoromethyl)phenyl]methyl}-2-methoxy-6-methylpyridine-3-carboxamide] | 20 to 200 | > 200 |  |  | 
COc1nc(C)c(-c2ccn3nc(N)nc3c2)cc1C(=O)NCc1cc(C(F)(F)F)ccc1F [Example 197, 5-{2-amino-[1,2,4]triazolo[1,5-a]pyridin-7-yl}-N-{[2-fluoro-5-(trifluoromethyl)phenyl]methyl}-2-methoxy-6-methylpyridine-3-carboxamide] |  |  | < 20 |  | 20 to 200
